34 compounds from US10457672B2, “γ-diketones as Wnt/β-catenin signaling pathway activators” (Samumed, LLC, priority 2013, dated 2019) can be followed below.

The subject of one assay is Wnt/β-catenin signaling pathway (Wnt-responsive SP5 promoter luciferase reporter in SW480 cells). The assay can be described thus: Wnt reporter (SP5 promoter-firefly luciferase) activation assay in SW480 cells. The conditions noted are these: Homo sapiens; SW480 colon cancer cells with SP5 promoter luciferase reporter; 24 h after compound addition; normalized to DMSO; concentration at half maximal activation. It counts as cell-based. As to the method:
Compounds that enhance the Wnt activity, or Activators, were assayed as follows. Reporter cell lines were generated by stably transducing cells of colon cancer cell lines (with a lentiviral construct that included a Wnt-responsive promoter driving expression of the firefly luciferase gene).
Lentiviral constructs were made in which the SP5 promoter, a promoter having eight TCF/LEF binding sites derived from the SP5 promoter, was linked upstream of the firefly luciferase gene. The lentiviral constructs also included a hygromycin resistance gene as a selectable marker. The SP5 promoter construct was used to transduce SW480 cells, a colon cancer cell line having a mutated APC gene that generates a truncated APC protein, leading to de-regulated accumulation of β-catenin.
Cultured SW480 cells bearing a reporter construct were distributed at approximately 10,000 cells per well into 384- or 96-well multiwell plates. Compounds from a small molecule compound library were then added to the wells in half-log dilutions using a maximum concentration of three or ten micromolar. A series of control wells for each cell type received only buffer and compound solvent DMSO. Twenty-four hours after the addition of compound, reporter activity for luciferase was assayed, for example, by addition of the BrightGlo luminescence reagent (Promega) and the Victor3 plate reader (Perkin Elmer). Readings were normalized to DMSO only treated cells, and any activities above DMSO were considered activation. Compounds were considered activators if reporter activities were 2× fold or greater than DMSO. EC50 is the concentration at half maximal activation.
`Cc1ccc(C(=O)CCC(=O)c2ccc3c(c2)OCCO3)cc1` [Compound 344, 1-(2,3-Dihydrobenzo[b][1,4]dioxin-6-yl)-4-(p-tolyl)butane-1,4-dione]: the half-maximal effective concentration (EC50) came out at 307 nM.

Turning to `O=C(CCC(=O)c1ccccc1C(F)(F)F)c1ccc2[nH]ccc2c1` [Compound 249, 1-(1H-Indol-5-yl)-4-(2-(trifluoromethyl)phenyl)butane-1,4-dione], the response was half-maximal at 4 nM (EC50). Compared with the last compound, the EC50 is about 77-fold lower.

`O=C(CCC(=O)c1ccccc1F)c1ccc2occc2c1` [Compound 278, 1-(Benzofuran-5-yl)-4-(2-fluorophenyl)butane-1,4-dione] registered a concentration giving a half-maximal response (EC50) of 18 nM.

`O=C(CCC(=O)c1ccco1)c1ccccn1` [Compound 554, 1-(Furan-2-yl)-4-(pyridin-2-yl)butane-1,4-dione] showed a 50% effective concentration (EC50) of more than 10000 nM.

In turn, `COc1ccc(C(=O)CCC(=O)c2ccc(C)cc2)cc1OC` [Compound 426, 1-(3,4-Dimethoxyphenyl)-4-(p-tolyl)butane-1,4-dione] displayed an EC50 of 8800 nM.

`COc1ccc(C(=O)CCC(=O)c2ccncn2)cc1OC` [Compound 432, 1-(3,4-Dimethoxyphenyl)-4-(pyrimidin-4-yl)butane-1,4-dione] came in with an EC50 of 4800 nM.

`O=C(CCC(=O)c1c[nH]c2ccccc12)c1cccs1` [Compound 524, 1-(1H-Indol-3-yl)-4-(thiophen-2-yl)butane-1,4-dione] registered an EC50 of 88 nM.

As for `Cc1cccc(C(=O)CCC(=O)c2ccc3c(c2)OC(F)(F)O3)c1` [Compound 379, 1-(2,2-Difluorobenzo[d][1,3]dioxol-5-yl)-4-(m-tolyl)butane-1,4-dione], the EC50 is more than 10000 nM.

Take `COc1ccc(C(=O)CCC(=O)c2n[nH]c3ccccc23)cc1` [Compound 334, 1-(1H-Indazol-3-yl)-4-(4-methoxyphenyl)butane-1,4-dione]: the EC50 is more than 10000 nM.

On to `Cc1ccccc1C(=O)CCC(=O)c1n[nH]c2ccccc12` [Compound 528, 1-(1H-Indazol-3-yl)-4-(o-tolyl)butane-1,4-dione], for which the 50% effective concentration (EC50) was found to be 148 nM.

Consider `O=C(CCC(=O)c1ccccc1C(F)(F)F)c1ccc2c(c1)OCO2` [Compound 210, 1-(Benzo[d][1,3]dioxol-5-yl)-4-(2-(trifluoromethyl)phenyl)butane-1,4-dione], for which the EC50 is 2 nM.

For `O=C(CCC(=O)c1ncccc1C(F)(F)F)c1ccc2c(c1)OCCO2` [Compound 570, 1-(2,3-Dihydrobenzo[b][1,4]dioxin-6-yl)-4-(3-(trifluoromethyl)pyridin-2-yl)butane-1,4-dione], the EC50 stood at 26 nM.

Consider `O=C(CCC(=O)c1ccc2c(c1)OCCO2)c1cccc(C(F)(F)F)c1` [Compound 9, 1-(2,3-Dihydrobenzo[b][1,4]dioxin-6-yl)-4-(3-(trifluoromethyl)phenyl)butane-1,4-dione], for which the EC50 was determined as 100 nM.

In turn, `O=C(CCC(=O)c1ccco1)c1ccc2c(c1)OCCO2` [Compound 346, 1-(2,3-Dihydrobenzo[b][1,4]dioxin-6-yl)-4-(furan-2-yl)butane-1,4-dione] had an EC50 of 24 nM.

`O=C(CCC(=O)c1ccc2c(c1)OCCO2)c1cncnc1` [Compound 345, 1-(2,3-Dihydrobenzo[b][1,4]dioxin-6-yl)-4-(pyrimidin-5-yl)butane-1,4-dione] displayed an EC50 of more than 10000 nM.

In turn, `COc1ccccc1C(=O)CCC(=O)c1ccc2occc2c1` [Compound 281, 1-(Benzofuran-5-yl)-4-(2-methoxyphenyl)butane-1,4-dione] showed an EC50 of 61 nM.

As to `O=C(CCC(=O)c1cccc2c1OCCO2)c1cccc(F)c1` [Compound 240, 1-(2,3-Dihydrobenzo[b][1,4]dioxin-5-yl)-4-(3-fluorophenyl)butane-1,4-dione], the EC50 was found to be 669 nM. Compared with the last compound, the EC50 is about 11-fold higher.

In turn, `O=C(CCC(=O)c1ccc2c(c1)OCCO2)c1cccnc1` [Compound 14, 1-(2,3-dihydrobenzo[b][1,4]dioxin-6-yl)-4-(pyridin-3-yl)butane-1,4-dione] registered an EC50 of 306 nM. This EC50 is about 2.2-fold lower than that of the compound before.

In turn, `O=C(CCC(=O)c1ncccn1)c1ccc2c(c1)CCCC2` [Compound 737, 1-(Pyrimidin-2-yl)-4-(5,6,7,8-tetrahydronaphthalen-2-yl)butane-1,4-dione] gave an EC50 of 22 nM.

On to `COc1ccc(C(=O)CCC(=O)c2ncccn2)cc1OC` [Compound 431, 1-(3,4-Dimethoxyphenyl)-4-(pyrimidin-2-yl)butane-1,4-dione], for which the EC50 was more than 10000 nM.

Compound `Cc1ccccc1C(=O)CCC(=O)c1ccc2c(c1)OCO2` [Compound 368, 1-(Benzo[d][1,3]dioxol-5-yl)-4-(o-tolyl)butane-1,4-dione] returned a 50% effective concentration (EC50) of 16 nM.

Consider `COc1ccc(C(=O)CCC(=O)c2cccnc2)cc1OC` [Compound 208, 1-(3,4-Dimethoxyphenyl)-4-(pyridin-3-yl)butane-1,4-dione], for which the EC50 was more than 10000 nM.

As to `O=C(CCC(=O)c1ccccn1)c1ccc2[nH]ncc2c1` [Compound 507, 1-(1H-Indazol-5-yl)-4-(pyridin-2-yl)butane-1,4-dione], it took 36 nM to reach a half-maximal effect (EC50).

On to `COc1cccc(C(=O)CCC(=O)c2ccc3c(c2)OCCO3)c1` [Compound 13, 1-(2,3-Dihydrobenzo[b][1,4]dioxin-6-yl)-4-(3-methoxyphenyl)butane-1,4-dione], for which the EC50 was 192 nM.

Compound `COc1ccccc1C(=O)CCC(=O)c1ccc2[nH]ccc2c1` [Compound 255, 1-(1H-Indol-5-yl)-4-(2-methoxyphenyl)butane-1,4-dione] showed an EC50 of 17 nM. Against the preceding compound, the EC50 is about 11-fold lower.

For `O=C(CCC(=O)c1ncccc1Cl)c1ccc2c(c1)OCCO2` [Compound 767, 1-(3-Chloropyridin-2-yl)-4-(2,3-dihydrobenzo[b][1,4]dioxin-6-yl) butane-1,4-dione], the response was half-maximal at 2.16 nM (EC50).

`O=C(CCC(=O)c1ncccn1)c1ccc2c(c1)CCCO2` [Compound 362, 1-(Chroman-6-yl)-4-(pyrimidin-2-yl)butane-1,4-dione]: a half-maximal response (EC50) required 188 nM.

In the case of `COc1ccc(C(=O)CCC(=O)c2cccc(C)c2)cc1OC` [Compound 425, 1-(3,4-Dimethoxyphenyl)-4-(m-tolyl)butane-1,4-dione], the EC50 was 5950 nM.

In turn, `O=C(CCC(=O)c1ccccc1C(F)(F)F)c1ccc2occc2c1` [Compound 275, 1-(Benzofuran-5-yl)-4-(2-(trifluoromethyl)phenyl)butane-1,4-dione] displayed an EC50 of 9 nM. Against the preceding compound, the EC50 is about 660-fold lower.

`Cc1ccccc1C(=O)CCC(=O)c1ccc2ocnc2c1` [Compound 485, 1-(Benzo[d]oxazol-5-yl)-4-(o-tolyl)butane-1,4-dione] returned an EC50 of more than 10000 nM.

On to `O=C(CCC(=O)c1cccnn1)c1ccc2c(c1)OCCO2` [Compound 341, 1-(2,3-Dihydrobenzo[b][1,4]dioxin-6-yl)-4-(pyridazin-3-yl)butane-1,4-dione], for which it took 95 nM to reach a half-maximal effect (EC50).

As to `O=C(CCC(=O)c1ccc2c(c1)OCCO2)c1cccc(F)c1` [Compound 11, 1-(2,3-Dihydrobenzo[b][1,4]dioxin-6-yl)-4-(3-fluorophenyl)butane-1,4-dione], the EC50 turned out to be 13 nM.

`COc1ccccc1C(=O)CCC(=O)c1c[nH]c2ccccc12` [Compound 319, 1-(1H-Indol-3-yl)-4-(2-methoxyphenyl)butane-1,4-dione] showed an EC50 of 279 nM.

Staying with this assay, now noted: SW480 colon cancer cells with SP5 promoter luciferase reporter; 24 h after compound addition; normalized to DMSO; concentration at half maximal activation.
`O=C(CC(=O)c1cc(O)c2c(c1O)OCCO2)c1ccccc1` [Compound 3, 1-(5,8-dihydroxy-2,3-dihydrobenzo[b][1,4]dioxin-6-yl)-3-phenylpropane-1,3-dione] registered an EC50 of more than 10000 nM.
